Where two headings read alike, the source gives them in different places.
How the values were obtained:
Format in all cases: binding
[1] = biological target: T1, HeLa cell extract proteins (Homo sapiens, UniProt O43175)
T1 construct: endogenous in cells; host or cells: HeLa cell extract
T1 sequence (O43175 1-533): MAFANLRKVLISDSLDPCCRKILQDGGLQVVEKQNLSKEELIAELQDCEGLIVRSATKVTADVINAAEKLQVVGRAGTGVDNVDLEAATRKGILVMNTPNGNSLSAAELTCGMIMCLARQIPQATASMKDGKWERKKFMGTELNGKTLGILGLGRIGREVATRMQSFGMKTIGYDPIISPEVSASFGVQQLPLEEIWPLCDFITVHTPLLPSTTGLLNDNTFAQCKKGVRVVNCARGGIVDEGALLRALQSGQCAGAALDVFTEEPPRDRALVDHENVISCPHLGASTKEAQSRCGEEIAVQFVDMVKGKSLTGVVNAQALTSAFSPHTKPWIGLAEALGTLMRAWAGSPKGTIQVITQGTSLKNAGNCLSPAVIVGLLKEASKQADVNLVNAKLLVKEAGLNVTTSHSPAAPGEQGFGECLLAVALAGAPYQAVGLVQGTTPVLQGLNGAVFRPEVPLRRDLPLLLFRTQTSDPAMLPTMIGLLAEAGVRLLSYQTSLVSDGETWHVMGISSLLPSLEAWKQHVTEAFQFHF

[2] = biological target: T2, HeLa cell extract proteins (Homo sapiens, UniProt P25787)
T2 construct: endogenous in cells; host or cells: HeLa cell extract
T2 sequence (P25787 1-234): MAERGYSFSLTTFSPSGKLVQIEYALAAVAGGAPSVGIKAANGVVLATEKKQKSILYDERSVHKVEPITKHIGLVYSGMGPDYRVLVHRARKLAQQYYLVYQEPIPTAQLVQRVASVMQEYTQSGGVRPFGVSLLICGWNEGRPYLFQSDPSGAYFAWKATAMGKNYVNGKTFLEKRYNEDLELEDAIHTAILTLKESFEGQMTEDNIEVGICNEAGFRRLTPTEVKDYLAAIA

[3] = biological target: T3, HeLa cell extract proteins (Homo sapiens, UniProt P30050)
T3 construct: endogenous in cells; host or cells: HeLa cell extract

[4] = biological target: T4, HeLa cell extract proteins (Homo sapiens, UniProt P34932)
T4 construct: endogenous in cells; host or cells: HeLa cell extract

[5] = biological target: T5, HeLa cell extract proteins (Homo sapiens, UniProt Q02218)
T5 construct: endogenous in cells; host or cells: HeLa cell extract
T5 sequence (Q02218 41-1023): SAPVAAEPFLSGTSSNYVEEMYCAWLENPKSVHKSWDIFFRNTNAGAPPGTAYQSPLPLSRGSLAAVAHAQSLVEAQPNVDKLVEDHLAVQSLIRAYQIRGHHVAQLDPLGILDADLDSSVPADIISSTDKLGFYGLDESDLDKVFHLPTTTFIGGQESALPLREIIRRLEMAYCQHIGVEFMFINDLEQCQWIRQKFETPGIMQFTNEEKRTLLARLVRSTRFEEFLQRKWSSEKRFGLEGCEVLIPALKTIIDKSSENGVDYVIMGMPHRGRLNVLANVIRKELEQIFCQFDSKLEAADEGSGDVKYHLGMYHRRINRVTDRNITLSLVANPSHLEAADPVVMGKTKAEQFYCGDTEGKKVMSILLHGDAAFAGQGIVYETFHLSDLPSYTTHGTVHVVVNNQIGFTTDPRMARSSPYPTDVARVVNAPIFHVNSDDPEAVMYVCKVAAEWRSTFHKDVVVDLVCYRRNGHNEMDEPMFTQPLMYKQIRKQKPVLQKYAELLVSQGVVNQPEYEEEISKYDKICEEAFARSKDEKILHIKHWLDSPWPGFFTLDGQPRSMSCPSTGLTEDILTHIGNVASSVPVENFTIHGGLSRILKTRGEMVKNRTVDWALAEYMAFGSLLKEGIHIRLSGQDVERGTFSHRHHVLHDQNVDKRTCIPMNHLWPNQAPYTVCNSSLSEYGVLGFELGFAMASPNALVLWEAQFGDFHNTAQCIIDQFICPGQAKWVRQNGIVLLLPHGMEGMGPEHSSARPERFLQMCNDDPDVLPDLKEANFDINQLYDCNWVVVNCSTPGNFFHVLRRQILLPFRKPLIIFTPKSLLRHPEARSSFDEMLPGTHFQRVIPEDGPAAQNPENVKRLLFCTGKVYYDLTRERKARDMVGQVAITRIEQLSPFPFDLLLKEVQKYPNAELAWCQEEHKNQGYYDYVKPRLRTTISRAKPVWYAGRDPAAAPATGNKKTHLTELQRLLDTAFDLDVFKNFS

[6] = biological target: T6, HeLa cell extract proteins (Homo sapiens, UniProt Q16658)
T6 construct: endogenous in cells; host or cells: HeLa cell extract

[7] = biological target: T7, HeLa cell extract proteins (Homo sapiens, UniProt Q9UNK9)
T7 construct: endogenous in cells; host or cells: HeLa cell extract
T7 sequence (Q9UNK9 1-670): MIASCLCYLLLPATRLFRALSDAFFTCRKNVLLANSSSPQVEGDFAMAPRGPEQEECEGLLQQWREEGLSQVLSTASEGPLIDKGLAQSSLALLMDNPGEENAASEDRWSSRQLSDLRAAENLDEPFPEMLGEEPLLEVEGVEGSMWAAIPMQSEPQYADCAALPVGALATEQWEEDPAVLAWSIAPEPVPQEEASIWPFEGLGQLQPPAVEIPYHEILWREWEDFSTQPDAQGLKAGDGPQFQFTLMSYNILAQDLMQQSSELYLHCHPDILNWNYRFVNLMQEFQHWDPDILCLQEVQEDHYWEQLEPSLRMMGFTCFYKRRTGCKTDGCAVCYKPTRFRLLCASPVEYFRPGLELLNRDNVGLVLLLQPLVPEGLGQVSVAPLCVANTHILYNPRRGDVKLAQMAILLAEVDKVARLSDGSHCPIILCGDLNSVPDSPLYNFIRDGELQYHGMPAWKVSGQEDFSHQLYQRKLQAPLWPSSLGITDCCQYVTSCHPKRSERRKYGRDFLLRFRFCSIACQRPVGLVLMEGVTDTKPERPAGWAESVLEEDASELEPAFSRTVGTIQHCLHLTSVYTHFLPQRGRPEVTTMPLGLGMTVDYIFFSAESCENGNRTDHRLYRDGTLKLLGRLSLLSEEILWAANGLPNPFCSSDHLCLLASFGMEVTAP

T4 sequence (P34932 whole entry): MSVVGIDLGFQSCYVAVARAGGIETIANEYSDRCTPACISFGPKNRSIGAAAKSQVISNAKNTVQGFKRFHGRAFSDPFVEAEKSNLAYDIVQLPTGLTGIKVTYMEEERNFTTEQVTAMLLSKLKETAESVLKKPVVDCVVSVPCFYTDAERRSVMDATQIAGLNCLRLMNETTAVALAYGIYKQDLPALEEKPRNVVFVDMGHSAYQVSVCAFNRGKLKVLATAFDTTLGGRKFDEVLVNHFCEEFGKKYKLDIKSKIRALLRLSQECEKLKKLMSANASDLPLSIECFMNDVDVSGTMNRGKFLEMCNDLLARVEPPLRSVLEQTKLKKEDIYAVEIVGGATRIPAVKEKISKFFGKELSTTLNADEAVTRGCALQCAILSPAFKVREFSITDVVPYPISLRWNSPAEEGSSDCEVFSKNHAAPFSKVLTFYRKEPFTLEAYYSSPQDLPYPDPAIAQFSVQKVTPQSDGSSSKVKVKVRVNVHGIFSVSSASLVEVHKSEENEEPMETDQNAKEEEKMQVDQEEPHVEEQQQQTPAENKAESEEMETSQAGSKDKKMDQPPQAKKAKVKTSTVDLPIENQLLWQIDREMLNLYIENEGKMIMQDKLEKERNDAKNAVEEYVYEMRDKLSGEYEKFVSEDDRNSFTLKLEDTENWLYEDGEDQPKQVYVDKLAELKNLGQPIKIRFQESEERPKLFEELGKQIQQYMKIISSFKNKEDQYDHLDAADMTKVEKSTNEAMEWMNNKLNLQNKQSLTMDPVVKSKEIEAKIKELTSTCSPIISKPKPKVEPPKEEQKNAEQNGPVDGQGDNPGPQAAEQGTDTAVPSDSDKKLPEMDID

| SMILES | fold changes relative to vehicle control ([1]; protein PHGDH, HeLa) | fold changes relative to vehicle control ([2]; HeLa, captured protein PSMA2) | fold changes relative to vehicle control ([3]; HeLa, captured protein RPL12) | fold changes relative to vehicle control ([4]; HeLa, protein HSPA4) | fold changes relative to vehicle control ([5]; HeLa, captured protein OGDH) | fold changes relative to vehicle control ([6]; protein FSCN1, HeLa) | fold changes relative to vehicle control ([7]; protein ANGEL1, HeLa) | fold changes relative to vehicle control [1] | fold changes relative to vehicle control [2] | fold changes relative to vehicle control [3] | fold changes relative to vehicle control [4] | fold changes relative to vehicle control [5] | fold changes relative to vehicle control [6] | fold changes relative to vehicle control [7] | fold changes relative to vehicle control ([2]; protein PSMA2, HeLa) | fold changes relative to vehicle control ([3]; protein RPL12, HeLa) | fold changes relative to vehicle control ([4]; protein HSPA4, HeLa) | fold changes relative to vehicle control ([5]; protein OGDH, HeLa) | fold changes relative to vehicle control ([7]; captured protein ANGEL1, HeLa) |
| --- | --- | --- | --- | --- | --- | --- | --- | --- | --- | --- | --- | --- | --- | --- | --- | --- | --- | --- | --- |
| Nc1nc2c(c(=O)[nH]1)N(C=O)C(CNc1ccc(C(=O)N[C@@H](CCC(=O)O)C(=O)O)cc1)CN2 (stereo partly shown) [LEU, leucovorin] | 0.88 | 0.98 | 1.11 | 0.97 | 1.13 | 0.95 | 0.84 | – | – | – | – | – | – | – | – | – | – | – | – |
| Nc1nc2[nH]cc(CCc3ccc(C(=O)N[C@@H](CCC(=O)O)C(=O)O)cc3)c2c(=O)[nH]1 [PTX, pemetrexed] | – | – | – | – | – | – | – | 0.93 | 1.02 | 1.13 | 1.09 | 0.9 | 1.08 | 0.94 | – | – | – | – | – |
| CCCCCCOc1ccc(Cc2cnc(N)nc2N)cc1 [compound 1] | 0.99 | – | – | – | – | 1.28 | – | – | – | – | – | – | – | – | 1.14 | 1.15 | 1.19 | 1.05 | 1.04 |
| CCCCCCOc1cccc(Cc2cnc(N)nc2N)c1 [compound 2] | 1.25 | – | – | – | – | 1.96 | – | – | – | – | – | – | – | – | 1.17 | 1.24 | 2.1 | 1.26 | 0.94 |
| Nc1nc2cccc(-c3ccccc3)c2n1Cc1ccc(Cl)c(Cl)c1 [compound 3] | 1.5 | – | – | – | – | 0.96 | – | – | – | – | – | – | – | – | 0.95 | 1.08 | 0.92 | 1.03 | 0.95 |
| NCCOCCOCC(=O)Nc1nc2ncc(CNc3ccc(C(=O)NC(CCC(=O)O)C(=O)O)cc3)nc2c(=O)[nH]1 (stereo not shown) [compound 6] | 1.06 | 1.05 | 1.12 | 1.26 | 1.02 | 1.42 | 1.02 | – | – | – | – | – | – | – | – | – | – | – | – |
| NCCCNc1ccc(C(=O)NC(CCC(=O)O)C(=O)O)cc1 (stereo not shown) [compound 7] | 1.06 | 1.02 | 0.97 | 0.92 | 1.04 | 0.78 | 1 | – | – | – | – | – | – | – | – | – | – | – | – |
